# Assay results reported in patent US20210267996A1, “Compounds for inhibition of inflammation” (Children`s Medical Center Corporation, priority 2018, published 2021).
# Assays:
# [1] = tested on: mouse iBMDMs; experiment: AIM2 inflammasome cell death, iBMDMs transfected with poly(dA:dT); type: cell-based; details: poly(dA:dT) transfection
# [2] = tested on: NLRP3, GSDMD and HMGB1; experiment: Peritoneal macrophages of LPS-challenged mice (immunoblot); type: in vivo, mouse; details: 6 hrs after LPS
# Experimental: Drug administration and LPS-induced sepsis in mice. […] In the indicated group of mice in FIG. 5h, copper gluconate (0.15 mg/kg) was administered intraperitoneally 6 hr prior to the first injection of DSF. Sepsis was induced in C57BL/6 mice (8-10 weeks old) by intraperitoneal injection of LPS (E. coli O111:B4) at indicated concentrations. In some experiments, mice were treated with copper gluconate (0.15 mg/kg) or vehicle by intraperitoneal injection 5 hr before LPS challenge and then given DSF (50 mg/kg) intraperitoneally dissolved in sesame oil or vehicle 4 hr before and just before LPS challenge (15 mg/kg intraperitoneally). Peritoneal cells were collected by rinsing the peritoneal cavity with ice cold PBS containing 3% FBS 6 hr after LPS challenge. To measure cytokines, blood samples were collected by tail vein bleed 12 hr post LPS challenge and allowed to clot at room temperature. Sera obtained after centrifugation at 2,000×g for 10 min were analysed for inflammatory cytokines by ELISA.
# Peritoneal macrophages were harvested 6 hrs later and analysed for NLRP3, GSDMD and HMGB1 by immunoblot.
smiles,measurement,setting,value
"CCN(CC)C(=S)SSC(=S)N(CC)CC [C-23, Tetraethylthiuram disulfide]",cell death triggered by the AIM2 inflammasome,[1],impaired cell death in a dose-dependent manner
same,GSDMD processing in peritoneal macrophages,[2],equally processed
same,NLRP3 priming in mice,[2],did not inhibit NLRP3 priming in mice
